Where a name gives a salt, the structure may show the parent alone. Read-outs that look alike come from different tables or passages of the source.
Tests used:
A2058 = assay: Antiproliferation assay A2058 (Assay 7); assay type: cell-based; conditions: Homo sapiens; A2058 cells, 72 h, CellTiter-Glo; single determinations; read-out: IC50 Antiproli A2058
Procedure: (§1) Assessment of the Anti-Proliferative Effect of Compounds in Different Cell Lines
(§2) The impact of compounds on the proliferation of different cell lines was assessed using the CellTiter-Glo® Luminescent Cell Viability reagent from Promega (G7573).
(§3) In parallel, cells were plated in a reference (day 0) plate for time zero determination.
(§4) Rim wells were excluded. The cells were incubated for 72 h hours in a humidified incubator at 37° C. The day 0 plate was measured by adding 30 μL/well of CTG solution (CellTiter-Glo® Luminescent Cell Viability reagent, Promega G7573) to time zero wells in the reference plate followed by a 10 minutes incubation and luminescence reading at 0.1 ms. using the PHERAstar FS microplate reader (BMG Labtech).
(§5) After 72 h incubation, the treated plates were measured in the same way as the day 0 plate mentioned above.

SK-BR-3 = assay: Antiproliferation assay SK-BR-3 (Assay 7); assay type: cell-based; conditions: SK-BR-3 cells, CellTiter-Glo, single determinations, read-out: IC50 Antiproli SK-BR-3
Procedure: as §1, §2, §3, §4, §5

NCI-H23 = assay: Antiproliferation assay NCI-H23 (Assay 7); assay type: cell-based; conditions: NCI-H23 cells, CellTiter-Glo, single determinations, read-out: IC50 Antiproli NCI-H23
Procedure: as §1, §2, §3, §4, §5

BxPC-3 = assay: Antiproliferation assay BxPC-3 (Assay 7); assay type: cell-based; conditions: Homo sapiens; BxPC-3 cells, 72 h, CellTiter-Glo; single determinations; read-out: IC50 Antiproli BxPC-3
Procedure: as §1, §2, §3, §4, §5

Procedure for SUDHL10: In principle, compounds that induce apoptosis will concomitantly induce cell cytotoxicity. Therefore, cytotoxicity assays were run in parallel in SUDHL5 and SUDHL10 cells.
The different cell lines were plated in culture medium (RPMI 1640 [GIBCO #22400-089] supplemented with 10% Fetal Bovine Serum) at a density of 3,300 cells in 30 μl/well in a sterile, solid black, flat bottom, polystyrene, TC-treated 384-well microplate (Corning #3571) using Multidrop Combi Reagent Dispenser. As a control, medium without cells was also added to the plate. Cells were incubated in a humidified incubator at 37° C. overnight. On the next day, the cells were treated with compounds (stock solution, 10 mM in DMSO) using the HP D300 Digital Dispenser in a concentration range of 3.3×10e-5 M (33 μM) to 5×10e-9 M (5 nM) in a single-dot curve with at least 16 dilutions and a DMSO concentration of 0.33%. Rim wells were excluded. The cells were incubated for 5 h hours in a humidified incubator at 37° C. After this incubation, 30 μl of CellTiter-Glo® Luminescent Cell Viability reagent (Promega, G7573) was added to each well using the Multidrop Combi Reagent Dispenser, followed by 15 min incubation on a shaker at room temperature. Finally, luminescence was read at 0.1 ms, with a gain of 3000 using the PHERAstar FS microplate reader (BMG Labtech).
The Bella DRC Master Sheet was used to calculate IC50s, with fixed CI=0 and C0=1.

Which results are given for `Cc1c2c(nn1C)COCCCCn1c(C(=O)O)c(CCCOc3cccc4ccccc34)c3ccc(F)c-2c31` (racemic) [Example 2, (rac)-4-fluoro-2,3-dimethyl-7-[3-(naphthalen-1-yloxy)propyl]-2,10,11,12,13,15-hexahydro-pyrazolo[4′,3′:9,10][1,6]oxazacycloundecino[8,7,6-hi]indole-8-carboxylic acid]?
IC50 (A2058): > 33 µM; IC50 (SK-BR-3; Homo sapiens, SK-BR-3, 72 h): 7.07 µM; IC50 (SK-BR-3; 72 h, listed as 02): 6.85 µM; IC50 (NCI-H23; Homo sapiens, NCI-H23, 72 h): 7.56 µM; IC50 (NCI-H23; 72 h, listed as 02): 9.56 µM

What does the source list for `Cc1c2c(nn1C)COCCCCn1c(C(=O)O)c(CCCOc3cccc4ccccc34)c3ccc(F)c-2c31` (single isomer, unassigned; enantiomer 1) [Example 3, 4-fluoro-2,3-dimethyl-7-[3-(naphthalen-1-yloxy)propyl]-2,10,11,12,13,15-hexahydropyrazolo-[4′,3′:9,10][1,6]oxazacycloundecino[8,7,6-hi]indole-8-carboxylic acid-N-ethylethanamine salt (enantiomer 1)]?
IC50 (A2058): > 33 µM; IC50 (SK-BR-3; Homo sapiens, SK-BR-3, 72 h): 9.5 µM; IC50 (NCI-H23; Homo sapiens, NCI-H23, 72 h): 6.94 µM

`CCc1c2c(nn1C)COCCCCn1c(C(=O)O)c(CCCOc3cccc4cc(F)ccc34)c3ccc(F)c-2c31` (single isomer, unassigned; enantiomer 1) [Example 22, 3-ethyl-4-fluoro-7-{3-[(6-fluoronaphthalen-1-yl)oxy]propyl}-2-methyl-2,10,11,12,13,15-hexahydropyrazolo[4′,3′:9,10][1,6]oxazacycloundecino[8,7,6-hi]indole-8-carboxylic acid-N-ethylethanamine salt (enantiomer 1)] was tested. Which IC50 (BxPC-3) did it give?
The IC50 was 23.5 µM.

Which results are given for “(rac)-1-(3-((2,3-dihydro-1H-inden-4-yl)oxy)propyl)-12-ethyl-13-fluoro-11-methyl-4,5,6,7,9,11-hexahydropyrazolo[4′,3′:9,10][1]oxa[6]azacycloundecino[8,7,6-hi]indole-2-carboxylic acid [Example 30]”?
IC50 (SUDHL5): 1.1 µM; IC50 (SUDHL10): 1.3 µM

From patent US11286263B2, “Macrocyclic fluorine substituted indole derivatives” (The Broad Institute, Inc., priority 2017, dated 2022)
